Source: patent US20090130707A1, “Methods of reducing the inhibitory effect of a redox active metal ion on the enzymatic hydrolysis of cellulosic material” (priority 2007, published 2009)

Assays:
[1] = test system: Cellulolytic Enzyme Composition #1; assay: mini-plate-scale PASC hydrolysis by Cellulolytic Enzyme Composition #1; assay type: biochemical, Trichoderma reesei
Procedure: (§1) Various (biologically common) divalent metal cations with variable ionic radii were tested in 2.8 ml Deep Well Microplates (VWR International, West Chester, Pa., USA) (“mini-plate-scale”) containing 1 ml suspensions of 25 g of AVICEL® per liter in 50 mM sodium acetate pH 5 at 50° C. Cellulolytic Enzyme Composition #1 was added at 0.25 g per liter for each hydrolysis. The mini-plates were sealed at 160° C. for 2 seconds using an ABGENE® ALPS 300™ sealer (ABgene, Rochester, N.Y., USA). The sealed mini-plates were incubated at 50° C. in an INNOVA® 4080 incubator shaker at 150 rpm. Soluble reducing sugars were measured by HPLC as described in Example 30.
In one series of “mini-scale” hydrolysis reactions performed according to the procedure described in Example 30, the effect of 1 mM to 10 mM FeSO4 was evaluated in the hydrolysis of AVICEL® by Cellulolytic Enzyme Composition #1. In a series of “mini-plate-scale” hydrolysis reactions performed according to the procedure described in Example 32, the effect of 1 mM to 10 mM FeSO4 was evaluated in the hydrolysis of PASC by Cellulolytic Enzyme Composition #1, except 2 g of PASC and 0.05 g Cellulolytic Enzyme Composition #1 per liter of 50 mM sodium acetate pH 5 were used.
The above study was extended to a range of concentration of Fe(II) and cellulose. In a series of “mini-plate-scale” hydrolysis reactions performed according to the procedure described in Example 32, except that 0.1 to 10 mM FeSO4, 0.6 to 4 g of PASC and 0.01 g of Cellulolytic Enzyme Composition #1 per liter of 50 mM sodium acetate pH 5 were used.

[2] = target: T1, Trichoderma reesei Cel7A cellobiohydrolase I (Trichoderma reesei, UniProt P62694); assay: PASC hydrolysis by Cel7A cellobiohydrolase I; assay type: biochemical; details: 10 mM FeSO4; 2 g PASC and 40 mg enzyme per liter (FIG. 20A)
T1 construct: made in house
T1 sequence (P62694 18-513): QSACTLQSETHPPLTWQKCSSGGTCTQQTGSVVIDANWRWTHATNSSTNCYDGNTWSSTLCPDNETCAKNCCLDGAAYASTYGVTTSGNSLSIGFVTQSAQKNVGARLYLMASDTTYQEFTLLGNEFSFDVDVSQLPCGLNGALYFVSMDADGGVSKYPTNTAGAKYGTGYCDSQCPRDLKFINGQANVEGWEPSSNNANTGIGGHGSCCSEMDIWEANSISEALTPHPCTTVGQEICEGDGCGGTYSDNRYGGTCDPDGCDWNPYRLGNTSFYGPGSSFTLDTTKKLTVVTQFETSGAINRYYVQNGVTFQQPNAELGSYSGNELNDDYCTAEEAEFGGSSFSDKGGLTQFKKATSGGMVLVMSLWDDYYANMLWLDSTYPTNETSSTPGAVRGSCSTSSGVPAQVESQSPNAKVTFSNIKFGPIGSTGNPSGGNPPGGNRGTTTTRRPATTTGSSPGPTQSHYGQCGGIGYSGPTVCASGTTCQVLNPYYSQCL

[3] = test system: Cellulolytic Enzyme Composition #1; assay: mini-scale AVICEL hydrolysis by Cellulolytic Enzyme Composition #1; assay type: biochemical, Trichoderma reesei
Procedure: FIGS. 19A, 19B, 19C, and 19D show the effective inhibitory concentration range of Fe(II) on the hydrolysis of AVICEL® by Cellulolytic Enzyme Composition #1 (A and B) and on the hydrolysis of PASC by Cellulolytic Enzyme Composition #1 (C and D). The AVICEL® hydrolysis was conducted with […] of AVICEL® and 0.25 g of Cellulolytic Enzyme Composition #1 per liter of 50 mM sodium acetate pH 5 at 50° C. FeSO4 (mM): (∘) 0, (+) 1, (Δ) 3, (⋄) 5, (□) 10. Dixon plot linear regression line: 1/Rate=(0.035±0.003)[Fe(II)]+(0.043±0.015), r^2=0.978. Rate was estimated from the hydrolysis difference (%) at 24 and 6 hours. The PASC hydrolysis was conducted with 2 g of PASC and 50 mg of Cellulolytic Enzyme Composition #1 per liter of 50 mM sodium acetate pH 5 at 50° C. Dixon plot linear regression line: 1/Rate=(0.0042±0.0003)[Fe(II)]+(0.059±0.002), r^2=0.994. Rates were estimated from the hydrolysis difference (%) at 7 hours.
The effect of various salts (FeSO4, FeCl2, NaCl, Na2SO4, MnSO4, MnCl2) was determined in the hydrolysis of PCS by Cellulolytic Enzyme Composition #2. The PCS hydrolysis was performed in duplicate in capped 1.7 ml EPPENDORF® tubes (“mini-scale”) containing 1 ml suspensions of 43.4 g of PCS (dry weight) per liter, 10 mM salts in 50 mM sodium acetate pH 5. Cellulolytic Enzyme Composition #2 was added at 0.25 g per liter. Reactions without the addition of the salt served as controls. The capped tubes were incubated at 50° C. in an INNOVA® 4080 incubator shaker (New Brunswick Scientific Co., Inc., Edison, N.J., USA) at 150 rpm.
In one series of “mini-scale” hydrolysis reactions performed according to the procedure described in Example 30, the effect of 1 mM to 10 mM FeSO4 was evaluated in the hydrolysis of AVICEL® by Cellulolytic Enzyme Composition #1.

[4] = target: T2, Trichoderma reesei Cel7B endoglucanase I (Trichoderma reesei, UniProt P07981); assay: PASC hydrolysis by Cel7B endoglucanase I; assay type: biochemical; details: 10 mM FeSO4; 2 g PASC and 40 mg enzyme per liter (FIG. 20C)
T2 construct: made in house; host or cells: Aspergillus oryzae JaL250
T2 sequence (P07981 23-459): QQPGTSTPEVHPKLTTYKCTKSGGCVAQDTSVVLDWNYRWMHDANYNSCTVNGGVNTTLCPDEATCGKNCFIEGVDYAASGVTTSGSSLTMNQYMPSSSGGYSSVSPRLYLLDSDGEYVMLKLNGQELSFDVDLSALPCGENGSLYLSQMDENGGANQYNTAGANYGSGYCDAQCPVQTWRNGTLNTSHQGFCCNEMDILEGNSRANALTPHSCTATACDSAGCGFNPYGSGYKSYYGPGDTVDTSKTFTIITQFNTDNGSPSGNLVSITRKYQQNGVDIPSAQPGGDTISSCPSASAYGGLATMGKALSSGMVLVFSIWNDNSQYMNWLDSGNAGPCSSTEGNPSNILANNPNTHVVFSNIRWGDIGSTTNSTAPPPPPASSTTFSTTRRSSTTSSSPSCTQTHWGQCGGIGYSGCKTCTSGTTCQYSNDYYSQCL

[5] = test system: Cellulolytic Enzyme Composition #1; assay: mini-plate-scale AVICEL hydrolysis by Cellulolytic Enzyme Composition #1; assay type: biochemical, Trichoderma reesei
Procedure: as §1
Iron-chelator complexes of variable size or redox property were tested for their ability to inhibit enzymatic hydrolysis of cellulose. […]

[6] = target: T3, Aspergillus oryzae CEL3A beta-glucosidase (Aspergillus oryzae, UniProt Q2UUD6); assay: Cellobiose hydrolysis by CEL3A beta-glucosidase; assay type: biochemical; details: 10 mM FeSO4; 2 g cellobiose and 1 mg enzyme per liter (FIG. 21)
T3 construct: made in house
T3 sequence (Q2UUD6 20-861): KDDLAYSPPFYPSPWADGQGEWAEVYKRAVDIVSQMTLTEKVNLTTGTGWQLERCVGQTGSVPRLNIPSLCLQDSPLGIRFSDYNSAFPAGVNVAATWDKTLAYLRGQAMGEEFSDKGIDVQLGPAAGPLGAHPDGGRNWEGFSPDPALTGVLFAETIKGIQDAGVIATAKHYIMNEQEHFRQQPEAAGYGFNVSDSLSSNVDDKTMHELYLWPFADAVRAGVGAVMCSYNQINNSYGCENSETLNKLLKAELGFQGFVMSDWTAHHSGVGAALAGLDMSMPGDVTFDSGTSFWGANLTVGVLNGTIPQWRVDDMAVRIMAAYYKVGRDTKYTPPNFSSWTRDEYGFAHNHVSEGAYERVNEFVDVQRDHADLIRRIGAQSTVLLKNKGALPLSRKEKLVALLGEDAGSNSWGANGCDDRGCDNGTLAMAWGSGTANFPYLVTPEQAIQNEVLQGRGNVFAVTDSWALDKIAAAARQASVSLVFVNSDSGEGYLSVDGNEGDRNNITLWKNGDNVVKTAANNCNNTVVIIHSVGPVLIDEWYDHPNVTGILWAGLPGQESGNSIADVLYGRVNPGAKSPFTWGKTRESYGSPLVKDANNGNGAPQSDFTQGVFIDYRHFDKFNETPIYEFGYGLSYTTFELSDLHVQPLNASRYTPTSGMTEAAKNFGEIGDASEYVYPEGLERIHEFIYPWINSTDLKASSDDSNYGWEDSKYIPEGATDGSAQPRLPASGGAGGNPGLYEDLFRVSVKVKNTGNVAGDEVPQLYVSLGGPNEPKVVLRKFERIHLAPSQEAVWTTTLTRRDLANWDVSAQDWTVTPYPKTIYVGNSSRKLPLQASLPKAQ
Procedure: The Fe(II) inhibition of Aspergillus oryzae CEL3A beta-glucosidase was measured similarly, except cellobiose replaced PASC. The initial rate vs Fe(II) concentration plots appeared as “mixed” type, whose complexity prevented extraction of Kis.

[7] = target: Trichoderma reesei Cel6A cellobiohydrolase II (Trichoderma reesei, UniProt P07987); details: 10 mM FeSO4; 2 g PASC and 40 mg enzyme per liter (FIG. 20B)
Chain of Trichoderma reesei Cel6A cellobiohydrolase II (P07987 25-471): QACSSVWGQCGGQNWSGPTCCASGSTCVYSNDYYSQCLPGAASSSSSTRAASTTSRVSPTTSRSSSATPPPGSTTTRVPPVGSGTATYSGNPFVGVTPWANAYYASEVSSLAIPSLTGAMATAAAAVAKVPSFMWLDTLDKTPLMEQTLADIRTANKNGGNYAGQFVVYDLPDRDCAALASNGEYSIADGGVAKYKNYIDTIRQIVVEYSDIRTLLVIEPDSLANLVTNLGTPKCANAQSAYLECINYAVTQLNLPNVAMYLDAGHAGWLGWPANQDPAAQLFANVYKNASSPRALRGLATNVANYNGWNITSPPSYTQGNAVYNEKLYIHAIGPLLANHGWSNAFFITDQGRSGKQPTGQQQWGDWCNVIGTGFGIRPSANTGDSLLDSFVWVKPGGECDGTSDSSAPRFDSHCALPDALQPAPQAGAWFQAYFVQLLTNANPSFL
Procedure: The inhibitory effect of ferrous ion was determined on Trichoderma reesei Cel7A cellobiohydrolase I, Trichoderma reesei Cel6A cellobiohydrolase II, Trichoderma reesei Cel7B endoglucanase I, and Trichoderma reesei Cel5A endoglucanase II using PASC as substrate.
A series of duplicate “mini-scale” hydrolysis reactions were performed according to the procedure described in Example 30, except that 10 mM FeSO4 and 2 g of PASC (dry weight) and 40 mg of enzyme per liter of 50 mM sodium acetate pH 5 were used.

## Ferrous sulfate [FeSO4]
[1]; 1 mM to 10 mM FeSO4, PASC (FIG. 19C)
  Concentration dependence of inhibition: increasingly inhibitory
[1]; 0.1 to 10 mM FeSO4, 0.6 to 4 g PASC, 0.01 g enzyme per liter
  Type of inhibition (double-reciprocal plots): mix-type inhibition
[1]; on PASC, 2 g PASC and 0.05 g enzyme per liter, read-out: Ki (x-intercept of Dixon plot)
  Ki: ~14 mM
[2]
  Effect on enzyme: significantly inhibited
[3]; 1 mM to 10 mM FeSO4, AVICEL (FIG. 19A)
  Concentration dependence of inhibition: increasingly inhibitory
[3]; on AVICEL, 23 g AVICEL and 0.25 g enzyme per liter, read-out: Ki (x-intercept of Dixon plot)
  Ki: ~1.3 mM
[4]
  Effect on enzyme: significantly inhibited
[5]; 0.1 to 10 mM
  Effect on hydrolysis over concentration range: concentration-dependent inhibition
[5]; 0.5 to 4 mM FeSO4, 0.6 to 4 g AVICEL per liter
  Type of inhibition (double-reciprocal plots): mix-type inhibition
[6]
  Effect on enzyme: slightly inhibited
[7]
  Effect on enzyme: significantly inhibited
